Source: ChEMBL document CHEMBL3045835, “Comparative study of conventional and microwave-assisted synthesis of some Schiff bases and their potential as antimicrobial agents” (2012)
Converted amounts (≈) assume the structure as drawn.

Tests used:
Type in all cases: functional
Pseudomonas fluorescens [1] = assay: Antibacterial activity against Pseudomonas fluorescens MTCC 2421 at 200 ug/ml after 18 hr by cup-plate method; conditions: MTCC 2421, 18 h, read-out: DIZ
Escherichia coli [2] = assay: Antibacterial activity against Escherichia coli MTCC 1573 at 1000 ug/ml after 18 hr by cup-plate method; conditions: MTCC 1573, 18 h, read-out: DIZ
Micrococcus luteus [3] = assay: Antibacterial activity against Micrococcus luteus MTCC 1538 at 100 ug/ml after 18 hr by cup-plate method; conditions: MTCC 1538, 18 h, read-out: DIZ
Aspergillus niger [4] = assay: Antifungal activity against Aspergillus niger MTCC 2546 after 24 hr by broth dilution method; conditions: MTCC 2546, 24 h
Aspergillus niger [5] = assay: Antifungal activity against Aspergillus niger MTCC 2546 at 1500 ug/ml after 18 hr by cup-plate method; conditions: MTCC 2546, 18 h, read-out: DIZ
Penicillium chrysogenum [6] = assay: Antifungal activity against Penicillium chrysogenum MTCC 161 at 1500 ug/ml after 18 hr by cup-plate method; conditions: MTCC 161, 18 h, read-out: DIZ
Aspergillus niger [7] = assay: Antifungal activity against Aspergillus niger MTCC 2546 at 200 ug/ml after 18 hr by cup-plate method; conditions: MTCC 2546, 18 h, read-out: DIZ
Penicillium chrysogenum [8] = assay: Antifungal activity against Penicillium chrysogenum MTCC 161 at 200 ug/ml after 18 hr by cup-plate method; conditions: MTCC 161, 18 h, read-out: DIZ
Bacillus subtilis [9] = assay: Antibacterial activity against Bacillus subtilis MTCC 441 at 200 ug/ml after 18 hr by cup plate method; conditions: MTCC 441, 18 h, read-out: DIZ
Staphylococcus aureus [10] = assay: Antibacterial activity against Staphylococcus aureus MTCC 1430 at 200 ug/ml after 18 hr by cup-plate method; conditions: MTCC 1430, 18 h, read-out: DIZ
Micrococcus luteus [11] = assay: Antibacterial activity against Micrococcus luteus MTCC 1538 at 500 ug/ml after 18 hr by cup-plate method; conditions: MTCC 1538, 18 h, read-out: DIZ
Bacillus subtilis [12] = assay: Antibacterial activity against Bacillus subtilis MTCC 441 at 100 ug/ml after 18 hr by cup plate method; conditions: MTCC 441, 18 h, read-out: DIZ
Staphylococcus aureus [13] = assay: Antibacterial activity against Staphylococcus aureus MTCC 1430 at 1000 ug/ml after 18 hr by cup-plate method; conditions: MTCC 1430, 18 h, read-out: DIZ
Micrococcus luteus [14] = assay: Antibacterial activity against Micrococcus luteus MTCC 1538 at 1000 ug/ml after 18 hr by cup-plate method; conditions: MTCC 1538, 18 h, read-out: DIZ
Bacillus pumilus [15] = assay: Antibacterial activity against Bacillus pumilus MTCC 1456 after 24 hr by broth dilution method; conditions: MTCC 1456, 24 h
Escherichia coli [16] = assay: Antibacterial activity against Escherichia coli MTCC 1573 at 200 ug/ml after 18 hr by cup-plate method; conditions: MTCC 1573, 18 h, read-out: DIZ
Pseudomonas aeruginosa = assay: Antibacterial activity against Pseudomonas aeruginosa MTCC 424 at 1500 ug/ml after 18 hr by cup-plate method; conditions: MTCC 424, 18 h, read-out: DIZ
Bacillus subtilis [17] = assay: Antibacterial activity against Bacillus subtilis MTCC 441 at 1500 ug/ml after 18 hr by cup plate method; conditions: MTCC 441, 18 h, read-out: DIZ
Penicillium chrysogenum [18] = assay: Antifungal activity against Penicillium chrysogenum MTCC 161 after 24 hr by broth dilution method; conditions: MTCC 161, 24 h
Penicillium chrysogenum [19] = assay: Antifungal activity against Penicillium chrysogenum MTCC 161 at 500 ug/ml after 18 hr by cup-plate method; conditions: MTCC 161, 18 h, read-out: DIZ
Bacillus subtilis [20] = assay: Antibacterial activity against Bacillus subtilis MTCC 441 at 1000 ug/ml after 18 hr by cup plate method; conditions: MTCC 441, 18 h, read-out: DIZ
Escherichia coli [21] = assay: Antibacterial activity against Escherichia coli MTCC 1573 at 1500 ug/ml after 18 hr by cup-plate method; conditions: MTCC 1573, 18 h, read-out: DIZ
Staphylococcus aureus [22] = assay: Antibacterial activity against Staphylococcus aureus MTCC 1430 at 500 ug/ml after 18 hr by cup-plate method; conditions: MTCC 1430, 18 h, read-out: DIZ
Pseudomonas fluorescens [23] = assay: Antibacterial activity against Pseudomonas fluorescens MTCC 2421 after 24 hr by broth dilution method; conditions: MTCC 2421, 24 h
Bacillus pumilus [24] = assay: Antibacterial activity against Bacillus pumilus MTCC 1456 at 500 ug/ml after 18 hr by cup-plate method; conditions: MTCC 1456, 18 h, read-out: DIZ
Staphylococcus aureus [25] = assay: Antibacterial activity against Staphylococcus aureus MTCC 1430 at 100 ug/ml after 18 hr by cup-plate method; conditions: MTCC 1430, 18 h, read-out: DIZ
Bacillus pumilus [26] = assay: Antibacterial activity against Bacillus pumilus MTCC 1456 at 1000 ug/ml after 18 hr by cup-plate method; conditions: MTCC 1456, 18 h, read-out: DIZ

MIC (Aspergillus niger [4]): 300 µg/mL (≈ 1270 µM) | MIC (Bacillus pumilus [15]): 300 µg/mL (≈ 1270 µM) | MIC (Penicillium chrysogenum [18]): 200 µg/mL (≈ 846 µM) | MIC (Pseudomonas fluorescens [23]): 300 µg/mL (≈ 1270 µM)
Structure (SMILES): Cc1cc(/N=C/c2cccc3ccccc23)no1
zone of inhibition at 200 µg/mL (Pseudomonas fluorescens [1]): 13 mm | zone of inhibition at 1000 µg/mL (Escherichia coli [2]): 15 mm | zone of inhibition at 100 µg/mL (Micrococcus luteus [3]): 16 mm | zone of inhibition at 1500 µg/mL (Aspergillus niger [5]): 21 mm | zone of inhibition at 1500 µg/mL (Penicillium chrysogenum [6]): 20 mm | zone of inhibition at 200 µg/mL (Aspergillus niger [7]): 18 mm | zone of inhibition at 200 µg/mL (Penicillium chrysogenum [8]): 16 mm | zone of inhibition at 200 µg/mL (Bacillus subtilis [9]): 16 mm | zone of inhibition at 200 µg/mL (Staphylococcus aureus [10]): 14 mm | zone of inhibition at 500 µg/mL (Micrococcus luteus [11]): 20 mm | zone of inhibition at 100 µg/mL (Bacillus subtilis [12]): 13 mm | zone of inhibition at 1000 µg/mL (Staphylococcus aureus [13]): 16 mm | zone of inhibition at 1000 µg/mL (Micrococcus luteus [14]): 22 mm | zone of inhibition at 200 µg/mL (Escherichia coli [16]): 13 mm | zone of inhibition at 1500 µg/mL (Pseudomonas aeruginosa): 20 mm | zone of inhibition at 1500 µg/mL (Bacillus subtilis [17]): 20 mm | zone of inhibition at 500 µg/mL (Penicillium chrysogenum [19]): 18 mm | zone of inhibition at 1000 µg/mL (Bacillus subtilis [20]): 19 mm | zone of inhibition at 1500 µg/mL (Escherichia coli [21]): 17 mm | zone of inhibition at 500 µg/mL (Staphylococcus aureus [22]): 15 mm | zone of inhibition at 500 µg/mL (Bacillus pumilus [24]): 16 mm | zone of inhibition at 100 µg/mL (Staphylococcus aureus [25]): 13 mm | zone of inhibition at 1000 µg/mL (Bacillus pumilus [26]): 17 mm
